Experimental data as given in PubChem BioAssay (NCI).
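Compound exposure: 48 hours, 5 concentrations, 96-well plates. GI50 is the concentration that inhibits growth by half. TGI denotes the concentration required for complete inhibition of growth.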

Legend:
Assay in all cases: NCI tumour cell line growth inhibition, 48 h
[1] = system: OVCAR-3 ovarian
[2] = system: TK-10 renal
[3] = system: NCI-H23 lung
[4] = system: SW-620 colon
[5] = system: MCF7 breast
[6] = system: ACHN renal
[7] = system: LOX IMVI melanoma
[8] = system: CCRF-CEM leukemia
[9] = system: T-47D breast
[10] = system: COLO 205 colon
[11] = system: HS 578T breast
[12] = system: HOP-92 NSCLC
[13] = system: NCI-H522 lung
[14] = system: K-562 leukemia
[15] = system: NCI-H460 lung
[16] = system: HOP-62 NSCLC
[17] = system: PC-3 prostate
[18] = system: SNB-19 CNS
[19] = system: IGROV1 ovarian
[20] = system: SF-295 CNS
[21] = system: SK-MEL-28 melanoma
[22] = system: M14 melanoma
[23] = system: NCI-H226 lung
[24] = system: HCC-2998 colon
[25] = system: MDA-MB-435
[26] = system: HT29 colon
[27] = system: UACC-62 melanoma
[28] = system: U251 CNS
[29] = system: KM12 colon
[30] = system: UO-31 renal
[31] = system: RXF 393 renal
[32] = system: HCT-116 colon
[33] = system: NCI/ADR-RES ovarian
[34] = system: MALME-3M melanoma
[35] = system: A498 renal
[36] = system: HCT-15 colon
[37] = system: OVCAR-5 ovarian
[38] = system: DU-145 prostate
[39] = system: SF-268 CNS
[40] = system: HL-60(TB) leukemia
[41] = system: A549 NSCLC
[42] = system: UACC-257 melanoma
[43] = system: MDA-MB-231 breast
[44] = system: OVCAR-4 ovarian
[45] = system: BT-549 breast
[46] = system: SF-539 CNS
[47] = system: OVCAR-8 ovarian
[48] = system: EKVX NSCLC
[49] = system: SK-MEL-5 melanoma
[50] = system: 786-0 renal
[51] = system: SK-OV-3 ovarian
[52] = system: SN12C renal
[53] = system: SNB-75 CNS
[54] = system: RPMI-8226 leukemia
[55] = system: MOLT-4 leukemia
[56] = system: CAKI-1 renal
[57] = system: SR leukemia

COc1cc([N+](=O)[O-])c(OC)cc1-c1nc2n(c1/C(N)=N/C(=N)N)CCS2 was tested, and the GI50 [1] was 33.5 µM, the TGI [1] was > 100 µM and the GI50 [2] was 20.3 µM. It also gave a TGI [2] of 96.4 µM, a GI50 [3] of 23.3 µM and a TGI [3] of 87.1 µM. For the same molecule, the GI50 [4] was > 100 µM, the TGI [4] was > 100 µM and the GI50 [5] was > 100 µM. The TGI [5] was > 100 µM, the GI50 [6] was 12.3 µM and the TGI [6] was > 100 µM. The GI50 [7] was 89.1 µM, the TGI [7] was > 100 µM and the GI50 [8] was > 100 µM. The TGI [8] was > 100 µM, the GI50 [9] was 86.8 µM and the TGI [9] was > 100 µM. For the same molecule, the GI50 [10] was > 100 µM, the TGI [10] was > 100 µM and the GI50 [11] was 32.5 µM. For the same molecule, the TGI [11] was > 100 µM, the GI50 [12] was 41.9 µM and the TGI [12] was > 100 µM. The GI50 [13] was 47.7 µM, the TGI [13] was > 100 µM and the GI50 [14] was > 100 µM. For the same molecule, the TGI [14] was > 100 µM, the GI50 [15] was 70.1 µM and the TGI [15] was > 100 µM. The GI50 [16] was 6.23 µM, the TGI [16] was 50.6 µM and the GI50 [17] was > 100 µM. For the same molecule, the TGI [17] was > 100 µM, the GI50 [18] was 10.2 µM and the TGI [18] was > 100 µM. For the same molecule, the GI50 [19] was 17.7 µM, the TGI [19] was > 100 µM and the GI50 [20] was 37.6 µM. For the same molecule, the TGI [20] was > 100 µM, the GI50 [21] was > 100 µM and the TGI [21] was > 100 µM. The GI50 [22] was > 100 µM, the TGI [22] was > 100 µM and the GI50 [23] was > 100 µM. For the same molecule, the TGI [23] was > 100 µM, the GI50 [24] was > 100 µM and the TGI [24] was > 100 µM. For the same molecule, the GI50 [25] was > 100 µM, the TGI [25] was > 100 µM and the GI50 [26] was > 100 µM. The TGI [26] was > 100 µM, the GI50 [27] was 75.5 µM and the TGI [27] was > 100 µM. For the same molecule, the GI50 [28] was 9.12 µM, the TGI [28] was > 100 µM and the GI50 [29] was > 100 µM. For the same molecule, the TGI [29] was > 100 µM, the GI50 [30] was > 100 µM and the TGI [30] was > 100 µM. For the same molecule, the GI50 [31] was 42.2 µM, the TGI [31] was > 100 µM and the GI50 [32] was 20.8 µM. For the same molecule, the TGI [32] was > 100 µM, the GI50 [33] was > 100 µM and the TGI [33] was > 100 µM. The GI50 [34] was 18.7 µM, the TGI [34] was 60.6 µM and the GI50 [35] was > 100 µM. For the same molecule, the TGI [35] was > 100 µM, the GI50 [36] was > 100 µM and the TGI [36] was > 100 µM. The GI50 [37] was > 100 µM, the TGI [37] was > 100 µM and the GI50 [38] was 50.4 µM. The TGI [38] was > 100 µM, the GI50 [39] was 45.8 µM and the TGI [39] was > 100 µM. For the same molecule, the GI50 [40] was > 100 µM, the TGI [40] was > 100 µM and the GI50 [41] was 59.3 µM. For the same molecule, the TGI [41] was > 100 µM, the GI50 [42] was 15.9 µM and the TGI [42] was 57 µM. For the same molecule, the GI50 [43] was 27 µM, the TGI [43] was > 100 µM and the GI50 [44] was 44 µM. The TGI [44] was > 100 µM, the GI50 [45] was > 100 µM and the TGI [45] was > 100 µM. The GI50 [46] was 26.2 µM, the TGI [46] was > 100 µM and the GI50 [47] was 17.5 µM. For the same molecule, the TGI [47] was > 100 µM, the GI50 [48] was 40.3 µM and the TGI [48] was > 100 µM. The GI50 [49] was 75.3 µM, the TGI [49] was > 100 µM and the GI50 [50] was 25.1 µM. The TGI [50] was > 100 µM, the GI50 [51] was > 100 µM and the TGI [51] was > 100 µM. The GI50 [52] was > 100 µM, the TGI [52] was > 100 µM and the GI50 [53] was 6.76 µM. For the same molecule, the TGI [53] was > 100 µM, the GI50 [54] was > 100 µM and the TGI [54] was > 100 µM. The GI50 [55] was > 100 µM and the TGI [55] was > 100 µM.
In the case of CC1=C2c3ccccc3N(S(=O)(=O)c3ccccc3)[C@H]2[C@H](C(=O)N2C3CC4CC[C@@]3(CS2(=O)=O)C4(C)C)CC1 (stereo partly specified), the TGI [1] is reported as > 100 µM, the TGI [2] is reported as > 100 µM and the TGI [3] is reported as > 100 µM. The TGI [4] was > 100 µM, the TGI [5] was 75.4 µM and the TGI [6] was > 100 µM. The TGI [7] was > 100 µM, the TGI [8] was > 100 µM and the TGI [9] was > 100 µM. The TGI [10] was > 100 µM, the TGI [11] was > 100 µM and the TGI [12] was > 100 µM. The TGI [13] was 42.6 µM, the TGI [56] was > 100 µM and the TGI [14] was > 100 µM. For the same molecule, the TGI [15] was > 100 µM, the TGI [16] was > 100 µM and the TGI [17] was > 100 µM. For the same molecule, the TGI [18] was > 100 µM, the TGI [19] was > 100 µM and the TGI [20] was > 100 µM. The TGI [21] was > 100 µM, the TGI [22] was > 100 µM and the TGI [23] was > 100 µM. The TGI [57] was > 100 µM, the TGI [25] was > 100 µM and the TGI [26] was > 100 µM. The TGI [27] was > 100 µM, the TGI [28] was > 100 µM and the TGI [29] was > 100 µM. For the same molecule, the TGI [30] was 54 µM, the TGI [31] was 14.7 µM and the TGI [32] was > 100 µM. The TGI [33] was > 100 µM, the TGI [34] was > 100 µM and the TGI [35] was > 100 µM. The TGI [36] was > 100 µM, the TGI [37] was > 100 µM and the TGI [38] was > 100 µM. For the same molecule, the TGI [39] was > 100 µM, the TGI [40] was 21.9 µM and the TGI [41] was > 100 µM. The TGI [42] was > 100 µM, the TGI [43] was > 100 µM and the TGI [44] was > 100 µM. For the same molecule, the TGI [45] was 81.7 µM, the TGI [46] was > 100 µM and the TGI [47] was > 100 µM. The TGI [48] was > 100 µM, the TGI [49] was 91.3 µM and the TGI [50] was > 100 µM. For the same molecule, the TGI [51] was > 100 µM, the TGI [52] was > 100 µM and the TGI [53] was 19.6 µM. It also gave a TGI [54] of 7.05 µM and a TGI [55] of 75.9 µM.
